The text below walks through data of patent US8993587B2, “Combination of syrosingopine and mitochondrial inhibitors for the treatment of cancer and immunosuppression” (Universitat Basel, priority 2011, dated 2015).

Where a name gives a salt, the structure may show the parent alone. Read-outs that look alike come from different tables or passages of the source.

The subject of data set [1] is mouse mast cell line 6.5. The data set can be described thus: AlamarBlue cell proliferation assay, mouse mast cell line 6.5. Type of data set: cell-based. As for the experimental part: (§1) AlamarBlue conversion cell proliferation assay. […] All data points were performed in tripliclate.
(In general: Alamar Blue is a resazurin reagent that responds to reducing activity.)

Data set [2] relates to murine 6.5 cells (inner mitochondrial membrane potential). The data set can be described thus: Mitochondrial membrane potential by TMRM fluorescence assay. Type of data set: cell-based, mouse. The conditions noted are these: TMRM 100 nM 20 min, control peak 403, syrosingopine pre-incubation 4 h (highest amount), FCCP pre-treatment 1 h (FIG. 11).
Experimental: Murine 6.5 cells were treated with TMRM (panels 1-6), and in addition pre-incubated with FCCP (panel 2), syrosingopine at 0.1 μM (panel 3), 0.5 μM (panel 4), 2 μM (panel 5) or at 5 μM (panel 6) and fluorescence intensity was measured. Thin lines: fluorescence intensity of control cells or FCCP-treated cells (panel 2). Heavy lines indicate cells pre-incubated additionally with syrosingopine (panels 3-6). X-axis indicates fluorescence intensity, Y-axis indicates relative cell numbers.
Murine 6.5 cells were treated for 20 min with the potentiometric fluorescent dye TMRM (tetramethylrhodamine methyl ester, AbD Serotec, 100 nM) and the fluorescence intensity was measured at 575 nm emission after excitation at 488 nm using a flow cytometer (CellLabQuanta, Beckman Coulter). This dye accumulates in the mitochondrial matrix when the inner membrane potential is more positive outside due to the extrusion of protons. […] The effect of syrosingopine was assessed by pre-incubating cells with increasing concentrations of syrosingopine for 4 h as indicated, followed by TMRM staining.
Data set [3] has as its system mouse mast cell line 6.5.
A further data set concerns cancer test cell lines. Description: Interaction of rauwolfia-related compounds with metformin. Type of data set: cell-based. The source says:
6.5 cells show many features of oncogenic transformation such as loss of growth-factor (IL3) dependence and signaling pathway addiction. […]. These cells display exquisite sensitivity to many clinical drugs. […].

In a further data set the test system is K562 cells. Description: AlamarBlue cell proliferation assay, K562. As to conditions: syrosingopine titration, metformin 5 mM, 3 days (FIG. 1E). It counts as cell-based, human. As for the experimental part: as §1
The subject of data set [4] is RPMI8226 cells. The data set can be described thus: AlamarBlue cell proliferation assay, RPMI8226. Type of data set: cell-based, human. The conditions noted are these: syrosingopine titration, metformin 5 mM, 3 days. As for the experimental part: as §1
Another data set deals with Jurkat cells. Description: AlamarBlue cell proliferation assay, Jurkat. It counts as cell-based, human. As to conditions: syrosingopine titration, metformin 5 mM, 3 days (FIG. 1D). As for the experimental part:
as §1

For data set [5], the system named is RPMI8226 cells. Description: Apoptosis assay (annexin V / propidium iodide FACS), RPMI8226. Type of data set: cell-based, human. The conditions noted are these: 2 μM syrosingopine, 1 mM metformin, singly or combined, 3 days (FIG. 3). The method, then:
(§2) OPM2 and RPM18226 cells were seeded at a density of 100,000 cells/5 ml medium with addition of compounds. […] RPM18226: 2 μM syrosingopine (S), 1 mM metformin (M). […] Annexin V is an apoptotic marker and was detected using a FITC-coupled antibody on the FL1-channel. Propidium iodide (PI) exclusion staining for vital cells was detected simultaneously on the FL3-channel. For each measurement, the PI and annexin V negative cells represent the viable cell population (white bars). Early apoptotic cells are PI-negative, annexin V-positive (hatched bars) and late apoptotic cells are PI-positive, annexin V-positive (black bars). Bars are plotted on the Y-axis as a percentage of the total cell population.
(§3) Apoptosis was determined by Annexin V-FITC (Invitrogen) and propidium iodide counter-staining, and cells were analysed by FACS to distinguish between viable/early apoptotic/late apoptotic cell sub-populations. Cells were seeded at a density of 100,000 cells/5 ml medium with addition of compounds as indicated. 500 μl of culture was harvested after 3 days and the cells were washed and stained with PI/Annexin V before FACs analysis.

Data set [6] deals with OPM2 cells. The data set can be described thus: Apoptosis assay (annexin V / propidium iodide FACS), OPM2. Type of data set: cell-based, human. As to conditions: 5 μM syrosingopine, 2 mM metformin, singly or combined, 3 days (FIG. 3). As for the experimental part: as §2, §3
The subject of data set [7] is OPM2 cells. The data set can be described thus: AlamarBlue cell proliferation assay, OPM2. Type of data set: cell-based, human. The conditions noted are these: for growth inhibition, combined versus each compound singly: syrosingopine titration, metformin 5 mM, 3 days (FIG. 1B). As for the experimental part: as §1
The test system of data set [8] is 6.5 cell tumors in DBA mice. The conditions noted are these: mouse, in vivo. The method, then:
Drug treatment commenced when tumors reached 100 mm^2 in size. Mice were separated into treatment groups and injected intra-peritoneally with PBS (horizontal bars), syrosingopine (S, filled diamonds, 2 mg/kg body weight), metformin (M, filled triangles, 250 mg/kg body weight) and metformin plus syrosingopine (S+M, crossed squares) daily for 15 days. Mice were sacrificed when tumor size became excessive (day 15) and tumors were dissected for measurement. (A) Chart showing tumor area (in mm^2) measured over the course of the treatment, d=days. (B) Mean body weight (g) of the mice at the time of sacrifice. Figures (n) above each bar indicate the number of mice per treatment group.
4×10^56.5 cells were injected in 150 μl of PBS into the flanks of immuno-compatible DBA mice. Tumor progression was monitored and treatment was started when tumor area reached 100 mm^2 in size. Mice were injected intra-peritoneally daily with metformin (250 mg/kg body weight), syrosingopine (2 mg/kg body weight) or combined for 15 days before being sacrificed for tumor tissue measurements.

Another data set relates to HL60 cells. Type of data set: cell-based, human. The conditions noted are these: oligomycin at a concentration below 1 nM, 3 days (FIG. 10B). The method, then: as §1
The subject of data set [9] is human peripheral blood leukocytes. The data set can be described thus: Phytohaemagglutinin-stimulated T cell proliferation. It counts as cell-based. The conditions noted are these: PHA 10 μg/ml; day 3; syrosingopine titration with or without metformin 4 mM (FIG. 7, right).
Experimental: Human peripheral blood leukocytes were cultured in presence or absence of phytohaemagglutinin.
Normal human buffy coat cells were obtained from a local blood donation center in accordance with the ethical guidelines. 80 ml of blood was diluted with 200 ml of Iscove's medium and overlayed on a Ficoll gradient. The gradient was centrifuged at 1400×g for 5 minutes to separate the leukocyte fraction from erythrocytes. Cells were plated on coated tissue culture dishes for 1 hour to remove adherent cells, and the remaining suspension cells were collected by centrifugation and counted with a haemocytometer. 50,000 cells were seeded per well in 96-well dishes and compounds were added according to the various treatment regimes to a final medium volume of 150 μl. For stimulation, phytohemagglutinin was added to a final concentration of 10 μg/ml. At day 3, proliferation was determined by AlamarBlue assay.
[10] abbreviates: 6.5 cells, agent at fixed, non- or minimally toxic concentration (FIG. 8) with increasing syrosingopine, 3 days.

`N#CC(C#N)=NNc1ccc(OC(F)(F)F)cc1` [FCCP, Carbonyl cyanide-p-trifluoromethoxyphenylhydrazone]: the “synergistic killing with syrosingopine” value in the data set with mouse mast cell line 6.5 [1] is “induced synergistic killing”. The TMRM fluorescence peak in data set [2] worked out at 42 arbitrary units.

`O=C(CC(=O)C(F)(F)F)c1cccs1` [TTFA, 2-Thenoyltrifluoroacetone]: the “synergistic killing with syrosingopine” value in the data set with mouse mast cell line 6.5 [1] (setting [10]) is reported as “Synergistic killing”.

As to `N#CC(=C(/N)Sc1ccccc1N)/C(C#N)=C(\N)Sc1ccccc1N` [U0126], in the data set on mouse mast cell line 6.5 [3], the “sensitivity of 6.5 cells to inhibitor” value is recorded as “sensitive to nanomolar concentrations”.

For `COC(=O)C1=CO[C@@H](C)[C@H]2CN3CCc4c([nH]c5ccccc45)[C@@H]3C[C@H]12` [ajmalicine], the interaction with metformin entry in the data set with cancer test cell lines is “do not show significant interaction”.

As to `CCCCCC[C@H]1C(=O)O[C@H](C)[C@H](NC(=O)c2cccc(NC=O)c2O)C(=O)O[C@@H](C)[C@@H]1OC(=O)CC(C)C` [antimycin A, Antimycin A], the “synergistic killing with syrosingopine” value with mouse mast cell line 6.5 [1] was “Synergistic killing”.

With `COC(=O)[C@H]1[C@H]2C[C@H]3c4[nH]c5ccccc5c4CCN3C[C@@H]2CC[C@@H]1O.Cl` [corynanthine HCl], the interaction with metformin result in the data set with cancer test cell lines is listed as “do not show significant interaction”.

Turning to `CN(C)C(=N)NC(=N)N` [metformin, 3-(diaminomethylidene)-1,1-dimethylguanidine hydrochloride], the “growth inhibition, combined versus each compound singly” value in the data set on K562 cells, in the data set on RPMI8226 cells [4], with Jurkat cells and with OPM2 cells [7] (OPM2) was “only a marginal effect” each time. In addition, the inhibition at 5000 µM in the data set with mouse mast cell line 6.5 [1] (Mus musculus, Mast cell, 72 h, 6.5 cells, metformin alone at 5 mM, 3 days (FIG. 1A), read-out: inhibition of growth) came to 20%. Further, the “apoptotic induction (annexin V / PI)” value in the data set on RPMI8226 cells [5] and in the data set on OPM2 cells [6] was “No apoptotic induction” in each case. Further, the “body weight at sacrifice” value in [8] is “no significant difference in body weight”.

`CC[C@@H]1/C=C/C=C/C[C@H](C)C(O)[C@](C)(O)C(=O)[C@H](C)[C@@H](O)[C@H](C)C(=O)[C@H](C)[C@@H](O)[C@H](C)/C=C/C(=O)O[C@H]2[C@@H](C)[C@@H](CC1)O[C@@]1(CC[C@@H](C)[C@@H](C[C@H](C)O)O1)[C@@H]2C` (stereo partly drawn) [oligomycin, Oligomycin]: in the data set with mouse mast cell line 6.5 [1] (6.5 cells, absence of syrosingopine, concentrations employed for synergistic killing, 3 days (FIG. 9)), the “toxicity of the mitochondrial inhibitor alone” value is “without toxic effect”. The “synergistic killing with syrosingopine” value in the data set with mouse mast cell line 6.5 [1] (setting [10]) was “induced synergistic cell killing”. Moreover, the “killing in combination with syrosingopine” value was “kills human cancer lines” in the data set with HL60 cells and “kills human cancer lines” with OPM2 cells [7] (OPM2, oligomycin at a concentration below 1 nM, 3 days (FIG. 10C)).

For `N=C(N)NC(=N)NCCc1ccccc1` [phenformin, 1-(diaminomethylidene)-2-(2-phenylethyl)guanidine], the “growth inhibition, phenformin alone” value in the data set on mouse mast cell line 6.5 [1] (6.5 cells, concentrations up to 10 μM, 3 days (FIG. 6, left)) is recorded as “no growth inhibition”. The synergy with syrosingopine result in the data set with mouse mast cell line 6.5 [1] (6.5 cells, phenformin 10 μM combined with increasing concentrations of syrosingopine, 3 days (FIG. 6, right)) is “strong synergistic effect”.

For `COC(=O)[C@H]1[C@H]2C[C@H]3c4[nH]c5ccccc5c4CCN3C[C@H]2CC[C@@H]1O` [rauwolscine HCl], the interaction with metformin result in the data set with cancer test cell lines is listed as “do not show significant interaction”.

`COC(=O)[C@H]1[C@H]2C[C@@H]3c4[nH]c5cc(OC)ccc5c4CCN3C[C@H]2C[C@@H](OC(=O)/C=C/c2cc(OC)c(OC)c(OC)c2)[C@@H]1OC` [rescinnnamine]: the interaction with metformin entry with cancer test cell lines is “do not show significant interaction”.

`COC(=O)[C@H]1[C@H]2C[C@@H]3c4[nH]c5cc(OC)ccc5c4CCN3C[C@H]2C[C@@H](OC(=O)c2cc(OC)c(OC)c(OC)c2)[C@@H]1OC` [reserpine]: the interaction with metformin entry is reported as “No interaction” in the data set with mouse mast cell line 6.5 [1] (6.5 cells, reserpine over a range of concentrations, metformin 5 mM (FIG. 4)); “do not show significant interaction” in the data set with cancer test cell lines; “No interaction” in the data set on OPM2 cells [7] (OPM2 cells, reserpine over a range of concentrations, metformin 5 mM (FIG. 4)).

As for `COc1ccc2c3c([nH]c2c1)[C@H]1C[C@H]2[C@H](C[C@@H](O)[C@H](OC)[C@H]2C(=O)O)CN1CC3` [reserpinnic acid], the interaction with metformin result with cancer test cell lines is “do not show significant interaction”.

For the compound `O=C([O-])CC(=O)[O-].[Na+].[Na+]` [sodium malonate, Sodium malonate], in the data set with mouse mast cell line 6.5 [1] (setting [10]), the “synergistic killing with syrosingopine” value was “Synergistic killing”.

For `CCOC(=O)Oc1c(OC)cc(C(=O)O[C@@H]2C[C@@H]3CN4CCc5c([nH]c6cc(OC)ccc56)[C@H]4C[C@@H]3[C@H](C(=O)OC)[C@H]2OC)cc1OC` [syrosingopine], the “growth inhibition, combined versus each compound singly” value in the data set on K562 cells, in the data set on RPMI8226 cells [4], in the data set with Jurkat cells and with OPM2 cells [7] (OPM2) was “only a marginal effect” each time. Further, the “inhibition of growth, syrosingopine alone” value in the data set on mouse mast cell line 6.5 [1] (6.5 cells, syrosingopine titration without metformin, 3 days (FIG. 1A)) is reported as “virtually non-inhibitory”. Moreover, in data set [9], the “inhibition of PHA-stimulated proliferation” value was “considerably less so”. The “apoptotic induction (annexin V / PI)” value in the data set with RPMI8226 cells [5] and with OPM2 cells [6] was “No apoptotic induction” throughout. In data set [2], the TMRM fluorescence peak was 955 arbitrary units. Also, the “signs of overt toxicity” value in data set [8] (DBA) is reported as “no significant difference in body weight between the treatment groups (FIG. 5B) or any signs of overt toxicity”. Also, the “body weight at sacrifice” value in [8] was “no significant difference in body weight”.

`COC(=O)[C@@H]1[C@H]2C[C@H]3c4[nH]c5ccccc5c4CCN3C[C@@H]2CC[C@@H]1O` [yohimbine HCl]: the interaction with metformin entry with cancer test cell lines is on record as “do not show significant interaction”.

For `O=C(O)[C@@H]1[C@H]2C[C@H]3c4[nH]c5ccccc5c4CCN3C[C@@H]2CC[C@@H]1O` [yohimbinic acid], the interaction with metformin entry in the data set with cancer test cell lines is reported as “do not show significant interaction”.

In the case of Stavudine, in the data set with mouse mast cell line 6.5 [1] (setting [10]), the “synergistic killing with syrosingopine” value was “induced synergistic killing”.

Broadly, the inhibition is the relative decrease from the control value, in per cent.
